Entries after “also recorded” stand apart in the source; their conditions may differ.
Experiments:
[1] = target: T1, CD81-LEL (Homo sapiens, UniProt P60033); test: Surface plasmon resonance binding of ligands to immobilized CD81-LEL; conditions: for Binding (change in response units) / Dissociation 1 (change in response units) / Dissociation 2 (change in response units): SPR; for Binding (change in response units): 3 min association; for Dissociation 1 (change in response units) / Dissociation 2 (change in response units): dissociation interval
T1 construct: A recombinant form of the CD81-LEL protein with a GST tag; gift of Dr. Shoshana Levy, Stanford University
T1 sequence (P60033 113-201 limits assumed): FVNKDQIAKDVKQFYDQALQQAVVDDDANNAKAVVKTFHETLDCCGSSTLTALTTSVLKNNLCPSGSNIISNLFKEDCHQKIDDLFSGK
Protocol: SPR analysis was performed using a Biacore T200 workstation (GE Healthcare, NJ, USA). A recombinant form of the CD81-LEL protein with a GST tag (generously provided by Dr. Shoshana Levy, Stanford University) was used to confirm, using an established experimental technique, the binding of several ligands to the protein. Briefly, 10 μM CD81-LEL-GST diluted into 10 mM Na-Acetate buffer pH 4.5 was immobilized for 15 min at a flow speed of 5 μl/min onto a CM5 sensor chip using amine-coupling (EDC-NHS), Approximately 20,000 RU of protein were immobilized on the chip. The ligands were prepared as 600 μM solutions in PBS-0.05% Tween-80 (the running buffer) and they were introduced to the protein using a pre-programmed 3 minute association and 1 minute dissociation interval.
SPR analysis was performed using a Biacore T100 workstation (GE Healthcare, NJ, USA). […] Approximately 20,000 RU of protein were immobilized on the chip. The ligands were prepared as 200 uM solutions in PBS-1% DMSO (the running buffer) and they were introduced to the protein using a pre-programmed 3 min association and 1 min dissociation interval.

[2] = target: T2, native CD81 on Raji cells (Homo sapiens, UniProt P60033); test: Antibody neutralizing assay: inhibition of JS-81 anti-CD81 antibody binding on Raji cells (FACS); format: cell-based; conditions: for inhibition at 50 µM: 50 μM ligand; for inhibition at 50 µM / inhibition at 100 µM / inhibition at 400 µM: Raji cells, read-out: Inhibition of JS-81 Binding (%); for inhibition at 100 µM: 100 μM ligand; for inhibition at 400 µM: 400 μM ligand
T2 construct: endogenous in cells; host or cells: Raji cells (human B cell line)
T2 sequence (P60033 1-236): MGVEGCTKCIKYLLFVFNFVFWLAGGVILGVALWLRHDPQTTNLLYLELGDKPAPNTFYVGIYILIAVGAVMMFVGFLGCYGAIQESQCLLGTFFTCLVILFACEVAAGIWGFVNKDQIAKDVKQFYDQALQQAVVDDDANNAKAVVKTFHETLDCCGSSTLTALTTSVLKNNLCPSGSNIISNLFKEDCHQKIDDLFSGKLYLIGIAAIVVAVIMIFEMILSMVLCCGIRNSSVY
Protocol: For antibody neutralization assay Raji cells were used, a human B cell line that expressed high amounts of CD81 on the surface (data not shown), Cells were grown in RPMI medium (10% FCS, 1% penicillin/streptomycin, 1% L-glutamine, 1% non-essential amino acids, 1% sodium pyruvate, pH 7.4, at 37° C. with 5% CO2). 2×10^5 cells were incubated with or without different concentrations (50 μM, 100 μM, 400 μM and 1 mM) of indicated inhibitor for 20 min at room temperature, subsequently 1 ul (16 ng/μl) of FITC-labeled anti CD81 antibody (BD Pharmingen, 551108) was added to the cells and incubated for 20 min (antibody titration was performed to obtain a working dilution range, data not shown). Cells were washed and analyzed by FACS (BD FACSCalibur, software: Cell Quest Pro). Mean Fluorescence Intensity MFI was calculated using Flowjo software (TreesStar, www.flowjo.com).

[3] = system: Plasmodium berghei; test: Sporozoite infection assay, P. berghei in HepG2 cells; format: cell-based
[4] = system: Plasmodium yoelii; test: Sporozoite development assay, P. yoelii in HepG2-CD81 cells; format: cell-based; conditions: for Percent Infection: HepG2-CD81, Plasmodium yoelii, 400 uM compound
Protocol: (§1) Anopheles stephensi mosquitoes were fed on mice infected with Plasmodium yoelii 17XNL parasites. On day 14 post bloodmeal, salivary glands were harvested, homogenized, sporozoite number was determined using a hemocytometer and the indicated number of sporozoites was added to cell monolayers, Plasmodium falciparum sporozoites were generated by membrane feeding An. stephensi mosquitoes using gametocyte cultures generated in vitro.
(§2) HepG2-CD81 (14) cells were maintained in DMEM supplemented with 10% fetal calf serum and 1 mM glutamine (DMEM/FCS), mAb 2E6 was used for development assays and is directed against Plasmodium Hsp 70 (15) and mAb 2A10 is directed against the repeat region of P. falciparum CSP and was used for invasion assays.
(§3) 5×10^5 HepG2-CD81 cells were plated on collagen coated Lab-Tek wells and allowed to adhere overnight. The following day, cells were preincubated with 400 uM of compound for 30 minutes at 37° C. Controls were pre-incubated with DMSO at the same concentration in which it was found in the compound solutions. 10^5 sporozoites were added to each well and in the case of P. falciparum, incubated for 1.5 hours and scored for invasion whereas in the case of P. yoelii, incubated for 44 hours and scored for exoerythrocytic stages.

[5] = system: Plasmodium falciparum; test: Sporozoite invasion assay, P. falciparum in HepG2-CD81 cells; format: cell-based; conditions: for Percent Infection: HepG2-CD81, Plasmodium falciparum, 400 uM compound
Protocol: as §1, §2, §3

[6] = system: Plasmodium yoelii; test: Sporozoite infection assay, P. yoelii in Hepa1-6 cells; format: cell-based; conditions: for effect on infection (in words): Hepa1-6 cells; for Percent Infection: Hepa1-6 Cells, Plasmodium yoelii
[7] = system: Plasmodium berghei; test: Sporozoite infection assay, P. berghei in Hepa1-6 cells; format: cell-based; conditions: for effect on infection (in words): Hepa1-6 cells; for Percent Infection: Hepa1-6 Cells, Plasmodium berghei

Compound	Binding (change in response units) [1] [response units]	Dissociation 1 (change in response units) [1] [response units]	Dissociation 2 (change in response units) [1] [response units]	inhibition at 50 µM [2] [%]	inhibition at 100 µM [2] [%]	inhibition at 400 µM [2] [%]	effect on infection (in words) ([4]; P. yoelii, HepG2-CD81)	effect on infection (in words) ([5]; P. falciparum)	effect on infection (in words) ([6]; P. yoelii)	effect on infection (in words) ([7]; P. berghei)	Percent Infection [4] [%]	Percent Infection [5] [%]	Percent Infection [6] [%]	Percent Infection [7] [%]	further results
O=C(O)/C(=C\c1ccccc1)c1ccccc1 [Ligand 40614, 2,3-diphenylprop-2-enoate]	52.5	50.8	43	0	8	26	enhance the infection	wasn't found to enhance infection	enhancing development	enhancing development					effect on infection (in words) [3]: enhancing development
COc1cc(-c2ccc(Nc3ccccc3C(=O)O)c(OC)c2)ccc1Nc1ccccc1C(=O)O [Ligand 73735, 2-[4-[4-(2-carboxylatoanilino)-3-methoxyphenyl]-2-methoxyanilino]benzoate]				0	0	24	inhibit; also recorded: inhibitory effect	inhibit the infection		Inhibition	23	3.2	38.3	17.7	binding to CD81 by SPR (in words) [1]: bind to CD81-LEL; inhibition of anti-CD81 binding (in words) ([2]; 100 uM and 400 uM): inhibit anti-CD81 binding to CD81-LEL in a dose dependent manner; percentage of infection inhibition ([4]; P. yoelii, HepG2-CD81): 77%; percentage of infection inhibition ([5]; P. falciparum, HepG2-CD81): 96.8%; percentage of infection inhibition ([6]; P. yoelii, Hepa1-6): 61.7%; percentage of infection inhibition ([7]; P. berghei, Hepa1-6): 82.3%
Cc1cc(C)c(N)c(C(=O)O)c1 [Ligand 90444, 2-amino-3,5-dimethylbenzoate]	−1.7	13.1	5.6	0	0	24	inhibit; also recorded: inhibitory effect		didn't inhibit	didn't inhibit	44.3	98.7	222	95.6	

Source: patent US10548895B2, “Ligands that target Plasmodium sporozoite binding sites on CD81 and therapeutic methods using them” (American University In Cairo (AUC), priority 2014, dated 2020)
